Laboratory results reported in patent publication US12162890B2 (Novartis AG, priority 2015, dated 2024).

What follows are compounds tested against HEK293 cells with stable expression of the GRIN1 gene and tetracycline-inducible expression of the GRIN2B gene (NMDA receptor, NR2B) (Homo sapiens, UniProt Q13224) (assay: Fluo-8 Ca2+ flux assay: reversal of Ro 25-6981-mediated suppression of the Ca2+ response to co-agonist (glutamate/glycine)). Details: reversal of the Ro 25-6981 suppression of the Ca2+ response to co-agonist (glutamate/glycine).
Assay type: cell-based
Note: test concentration or dose not given here.

Sequence of HEK293 cells with stable expression of the GRIN1 gene and tetracycline-inducible expression of the GRIN2B gene (NMDA receptor, NR2B) (Q13224 27-1484, other chains not shown): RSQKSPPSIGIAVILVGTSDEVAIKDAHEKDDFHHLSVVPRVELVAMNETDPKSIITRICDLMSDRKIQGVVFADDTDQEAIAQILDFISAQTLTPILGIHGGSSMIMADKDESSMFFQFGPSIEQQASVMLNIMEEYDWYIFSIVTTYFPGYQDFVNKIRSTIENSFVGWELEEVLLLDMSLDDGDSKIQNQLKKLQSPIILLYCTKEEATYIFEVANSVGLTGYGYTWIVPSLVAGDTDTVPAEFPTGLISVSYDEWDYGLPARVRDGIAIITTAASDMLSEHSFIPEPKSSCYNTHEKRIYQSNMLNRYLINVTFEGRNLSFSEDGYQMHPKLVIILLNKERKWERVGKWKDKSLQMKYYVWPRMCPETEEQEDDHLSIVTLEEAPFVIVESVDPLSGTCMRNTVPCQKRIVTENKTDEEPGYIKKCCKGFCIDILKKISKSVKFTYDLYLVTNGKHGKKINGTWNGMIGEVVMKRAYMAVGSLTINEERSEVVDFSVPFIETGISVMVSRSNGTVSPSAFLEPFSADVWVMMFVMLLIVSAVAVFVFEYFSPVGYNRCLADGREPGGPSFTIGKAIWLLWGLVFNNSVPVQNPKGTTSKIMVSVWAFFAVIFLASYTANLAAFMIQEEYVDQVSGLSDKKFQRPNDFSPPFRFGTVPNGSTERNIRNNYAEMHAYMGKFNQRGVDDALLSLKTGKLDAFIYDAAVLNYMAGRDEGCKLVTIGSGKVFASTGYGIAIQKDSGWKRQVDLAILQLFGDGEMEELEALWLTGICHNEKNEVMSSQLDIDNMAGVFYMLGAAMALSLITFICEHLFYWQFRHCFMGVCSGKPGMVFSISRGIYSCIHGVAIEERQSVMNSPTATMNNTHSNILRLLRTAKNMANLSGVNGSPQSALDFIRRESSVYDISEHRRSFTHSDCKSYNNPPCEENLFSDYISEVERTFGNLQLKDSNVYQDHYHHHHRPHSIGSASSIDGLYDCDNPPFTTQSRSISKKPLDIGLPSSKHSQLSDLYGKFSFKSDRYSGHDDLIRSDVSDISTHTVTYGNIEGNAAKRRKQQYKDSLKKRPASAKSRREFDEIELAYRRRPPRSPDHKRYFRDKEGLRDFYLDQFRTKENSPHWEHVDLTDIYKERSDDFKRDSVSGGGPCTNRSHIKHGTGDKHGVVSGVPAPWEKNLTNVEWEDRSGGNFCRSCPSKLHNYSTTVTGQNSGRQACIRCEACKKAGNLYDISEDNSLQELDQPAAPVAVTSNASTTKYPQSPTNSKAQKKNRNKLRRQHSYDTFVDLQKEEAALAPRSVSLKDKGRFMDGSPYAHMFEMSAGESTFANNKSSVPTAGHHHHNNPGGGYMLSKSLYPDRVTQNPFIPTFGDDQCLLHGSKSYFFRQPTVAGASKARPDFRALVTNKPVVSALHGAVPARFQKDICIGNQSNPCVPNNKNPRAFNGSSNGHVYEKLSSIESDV

| Response Recovered (%) | SMILES |
| --- | --- |
| 7 | O=C(Cn1cnc2c(c(-c3ccc(Cl)c(F)c3)cn2CCO)c1=O)N1CCCC1 [Example 197] |
| 140 | Cc1cc(-c2cn(C3CC3)c3ccn(CC(=O)N4CC(C)(F)C4)c(=O)c23)ccc1Cl [Example 292, 3-(4-chloro-3-methylphenyl)-1-cyclopropyl-5-(2-(3-fluoro-3-methylazetidin-1-yl)-2-oxoethyl)-1,5-dihydro-4H-pyrrolo[3,2-c]pyridin-4-one] |
| 51 | O=C(Cn1ccn2ccc(-c3ccc(F)c(C(F)(F)F)c3)c2c1=O)N1CCC(F)C1 (stereo not drawn) [Example 390, 8-(4-fluoro-3-(trifluoromethyl)phenyl)-2-(2-(3-fluoropyrrolidin-1-yl)-2-oxoethyl)pyrrolo[1,2-a]pyrazin-1(2H)-one] |
| 46 | O=C(Cn1ccc2scc(-c3ccc(F)c(Cl)c3)c2c1=O)N1CC2(CC2)C1 [Example 71, 3-(3-chloro-4-fluorophenyl)-5-(2-oxo-2-(5-azaspiro[2.3]hexan-5-yl)ethyl)thieno[3,2-c]pyridin-4(5H)-one] |
| 13 | O=C(Cn1ccc2scc(-c3ccc(Cl)c(Cl)c3)c2c1=O)N1CC2(COC2)C1 [Example 68, 3-(3,4-dichlorophenyl)-5-(2-oxo-2-(2-oxa-6-azaspiro[3.3]heptan-6-yl)ethyl)thieno[3,2-c]pyridin-4(5H)-one] |
| 92 | Cc1cn(CC(=O)N2CC(F)(CF)C2)c(=O)c2c(-c3cnc(Cl)c(Cl)c3)ccn12 [Example 421, 8-(5,6-dichloropyridin-3-yl)-2-(2-(3-fluoro-3-(fluoromethyl)azetidin-1-yl)-2-oxoethyl)-4-methylpyrrolo[1,2-a]pyrazin-1(2H)-one] |
| 89 | O=C(Cn1ccc2[nH]cc(-c3ccc(F)c(C(F)(F)F)c3)c2c1=O)N1CCC(F)C1 (stereo not drawn) [Example 215, 3-(4-fluoro-3-(trifluoromethyl)phenyl)-5-(2-(3-fluoropyrrolidin-1-yl)-2-oxoethyl)-1H-pyrrolo[3,2-c]pyridin-4(5H)-one] |
| 9.9 | CC(C)(O)c1cn(CC(=O)N2CCC(F)C2)c(=O)c2c(-c3ccc(F)c(C(F)(F)F)c3)csc12 (stereo not drawn) [Example 133, 3-(4-fluoro-3-(trifluoromethyl)phenyl)-5-(2-(3-fluoropyrrolidin-1-yl)-2-oxoethyl)-7-(2-hydroxypropan-2-yl)thieno[3,2-c]pyridin-4(5H)-one] |
| 34 | N#Cc1cn(CC(=O)N2CCCC2)c(=O)c2c(-c3ccc(F)c(C(F)(F)F)c3)csc12 [Example 100, 3-(4-fluoro-3-(trifluoromethyl)phenyl)-4-oxo-5-(2-oxo-2-(pyrrolidin-1-yl)ethyl)-4,5-dihydrothieno[3,2-c]pyridine-7-carbonitrile] |
| 55 | O=C(Cn1ccc2[nH]cc(-c3ccc(Cl)c(F)c3)c2c1=O)N1CCCC1 [Example 211, 3-(4-chloro-3-fluorophenyl)-5-(2-oxo-2-(pyrrolidin-1-yl)ethyl)-1H-pyrrolo[3,2-c]pyridin-4(5H)-one] |
| 34 | O=C(Cn1ccc2scc(-c3ccc(Cl)c(F)c3)c2c1=O)N1CCCC1 [Example 2, 3-(4-chloro-3-fluorophenyl)-5-(2-oxo-2-(pyrrolidin-1-yl)ethyl)thieno[3,2-c]pyridin-4(5H)-one] |
| 140 | CC1(F)CN(C(=O)Cn2ccc3scc(-c4ccc(F)c(Cl)c4)c3c2=O)C1 [Example 39, 3-(3-chloro-4-fluorophenyl)-5-(2-(3-fluoro-3-methylazetidin-1-yl)-2-oxoethyl)thieno[3,2-c]pyridin-4(5H)-one] |
| 70 | CN(C)Cc1cn(CC(=O)N2CCC(F)C2)c(=O)c2c(-c3ccc(F)c(C(F)(F)F)c3)csc12 (stereo not drawn) [Example 116, 7-((dimethylamino)methyl)-3-(4-fluoro-3-(trifluoromethyl)phenyl)-5-(2-(3-fluoropyrrolidin-1-yl)-2-oxoethyl)thieno[3,2-c]pyridin-4(5H)-one] |
| 30 | CCN(CC)Cc1cn(CC(=O)N2CCC(F)C2)c(=O)c2c(-c3ccc(F)c(C(F)(F)F)c3)csc12 (stereo not drawn) [Example 117, 7-((diethylamino)methyl)-3-(4-fluoro-3-(trifluoromethyl)phenyl)-5-(2-(3-fluoropyrrolidin-1-yl)-2-oxoethyl)thieno[3,2-c]pyridin-4(5H)-one 2,2,2-trifluoroacetate] |
| 16 | O=C(Cn1cnc2csc(-c3ccc(Cl)c(F)c3)c2c1=O)N1CC(F)(F)C1 [Example 363, 5-(4-chloro-3-fluorophenyl)-3-(2-(3,3-difluoroazetidin-1-yl)-2-oxoethyl)thieno[3,4-d]pyrimidin-4(3H)-one] |
| 26 | O=C(Cn1ccc2scc(-c3ccc(Cl)c(Cl)c3)c2c1=O)N1CC2C(C1)C2(F)F (stereo not drawn) [Example 66, 3-(3,4-dichlorophenyl)-5-(2-(6,6-difluoro-3-azabicyclo[3.1.0]hex-an-3-yl)-2-oxoethyl)thieno[3,2-c]pyridin-4(5H)-one] |

| Response Recovered (%) | SMILES |
| --- | --- |
| 35 | O=C(Cn1ccc2scc(-c3cnc(Cl)c(Cl)c3)c2c1=O)N1CCC(F)C1 (stereo not drawn) [Example 12, 3-(5,6-dichloropyridin-3-yl)-5-(2-(3-fluoropyrrolidin-1-yl)-2-oxoethyl)thieno[3,2-c]pyridin-4(5H)-one] |
| 59 | O=C(Cn1ccc2c(c(-c3ccc(F)c(Cl)c3)cn2-c2ccncn2)c1=O)N1CCC(F)C1 (stereo not drawn) [Example 248] |
| 16 | O=C(Cn1ccc2scc(-c3ccc(F)c(C(F)(F)F)c3)c2c1=O)N1CC2(COC2)C1 [Example 69, 3-(4-fluoro-3-(trifluoromethyl)phen-yl)-5-(2-oxo-2-(2-oxa-6-azaspiro[3.3]heptan-6-yl)ethyl)thieno[3,2-c]pyridin-4(5H)-one] |
| 51 | Cn1cc(-c2ccc(F)c(Cl)c2)c2c(=O)n(CC(=O)N3CCC(F)C3)ccc21 (stereo not drawn) [Example 247, 3-(3-chloro-4-fluorophenyl)-5-(2-(3-fluoropyrrolidin-1-yl)-2-oxoethyl)-1-methyl-1H-pyrrolo[3,2-c]pyridin-4(5H)-one] |
| 26 | O=C(Cn1ccc2[nH]cc(-c3cnc(Cl)c(Cl)c3)c2c1=O)N1CC(F)C(F)C1 (stereo not drawn) [Example 210, 3-(5,6-dichloropyridin-3-yl)-5-(2-(3,4-difluoropyrrolidin-1-yl)-2-oxoethyl)-1H-pyrrolo[3,2-c]pyridin-4(5H)-one] |
| 63 | O=C(Cn1cnc2[nH]cc(-c3ccc(C(F)(F)F)c(Cl)c3)c2c1=O)N1CCC(F)C1 (stereo not drawn) [Example 176, 5-(3-chloro-4-(trifluoromethyl)phenyl)-3-(2-(3-fluoropyrrolidin-1-yl)-2-oxoethyl)-3H-pyrrolo[2,3-d]pyrimidin-4(7H)-one] |
| 23 | O=C(Cn1ccc2cccc(-c3ccc(Cl)c(F)c3)c2c1=O)N1CC(F)(F)C1 [Example 305, 8-(4-chloro-3-fluorophenyl)-2-(2-(3,3-difluoroazetidin-1-yl)-2-oxoethyl)isoquinolin-1(2H)-one] |
| 43 | O=C(Cn1ccn2ccc(-c3ccc(F)c(Cl)c3)c2c1=O)N1CC(F)(C2CC2)C1 [Example 398, 8-(3-chloro-4-fluorophenyl)-2-(2-(3-cyclopropyl-3-fluoroazetidin-1-yl)-2-oxoethyl)pyrrolo[1,2-a]pyrazin-1(2H)-one] |
| 8 | O=C(Cn1cnc2[nH]nc(-c3ccc(Cl)c(C(F)(F)F)c3)c2c1=O)N1CCCC1 [Example 317, 3-(4-chloro-3-(trifluoromethyl)phenyl)-5-(2-oxo-2-(pyrrolidin-1-yl)ethyl)-1H-pyrazolo[3,4-d]pyrimidin-4(5H)-one] |
| 18 | Cn1cc(-c2ccc(Cl)c(F)c2)c2c(=O)n(CC(=O)N3CC(F)(F)C3)cnc21 [Example 170, 5-(4-chloro-3-fluorophenyl)-3-(2-(3,3-difluoroazetidin-1-yl)-2-oxoethyl)-7-methyl-3H-pyrrolo[2,3-d]pyrimidin-4(7H)-one] |
| 17 | Cn1cc(-c2ccc(Cl)cc2)c2c(=O)n(CC(=O)N3CCCC3)cnc21 [Example 151, 5-(4-chlorophenyl)-7-methyl-3-(2-oxo-2-(pyrrolidin-1-yl)ethyl)-3H-pyrrolo[2,3-d]pyrimidin-4(7H)-one] |
| 20 | Cc1cn(CC(=O)N2CC(F)(F)C2)c(=O)c2c(-c3ccc(F)c(Cl)c3)ccn12 [Example 417, 8-(3-chloro-4-fluorophenyl)-2-(2-(3,3-difluoroazetidin-1-yl)-2-oxoethyl)-4-methylpyrrolo[1,2-a]pyrazin-1(2H)-one] |
| 11 | CC1(F)CN(C(=O)Cn2ccc3scc(-c4cnc(F)c(F)c4)c3c2=O)C1 [Example 139, 3-(5,6-difluoropyridin-3-yl)-5-(2-(3-fluoro-3-methylazetidin-1-yl)-2-oxoethyl)thieno[3,2-c]pyridin-4(5H)-one] |
| 14 | CC1(O)CN(C(=O)Cn2ccc3scc(-c4ccc(F)c(C(F)(F)F)c4)c3c2=O)C1 [Example 55, 3-(4-fluoro-3-(trifluoromethyl)phen-yl)-5-(2-(3-hydroxy-3-methylazetidin-1-yl)-2-oxoethyl)thieno[3,2-c]pyridin-4(5H)-one] |
| 26 | O=C(Cn1ccc2scc(-c3ccc(Cl)c(Cl)c3)c2c1=O)N1CC(F)(C2CC2)C1 [Example 49, 5-(2-(3-cyclopropyl-3-fluoroazetidin-1-yl)-2-oxoethyl)-3-(3,4-dichlorophenyl)thien-o[3,2-c]pyridin-4(5H)-one] |

| SMILES | Response Recovered (%) |
| --- | --- |
| C[Si](C)(C)CCOCn1cc(-c2ccc(F)c(Cl)c2)c2c(=O)n(CC(=O)N3CC(F)(F)C3)ccc21 [Example 207, 3-(3-chloro-4-fluorophenyl)-5-(2-(3,3-difluoroazetidin-1-yl)-2-oxoethyl)-1-((2-(trimethylsilyl)ethoxy)methyl)-1H-pyrrolo[3,2-c]pyndin-4(5H)-one] | 69 |
| O=C(Cn1ccc2c(c(-c3ccc(F)c(C(F)(F)F)c3)cn2-c2ccccc2)c1=O)N1CCC(F)C1 (stereo not drawn) [Example 230, 3-(4-fluoro-3-(trifluoromethyl)phenyl)-5-(2-(3-fluoropyrrolidin-1-yl)-2-oxoethyl)-1-phenyl-1H-pyrrolo[3,2-c]pyridin-4(5H)-one] | 109 |
